Test results from patent US20190365762A1, “MEDICINAL COMPOSITION INHIBITING NEOVASCULARIZATION PROLIFERATION FACTOR” (KYOTO UNIVERSITY, priority 2014, published 2019).
“Also recorded” adds a separate entry of the source.

Experiments:
[1] = test system: model mice with choroidal neovascularization (CNV); assay: CNV formation in laser-induced CNV model mice, intravitreal injection (Experiments 2 and 3); format: in vivo; conditions: for CNV formation (area of CNV): 20 pmol intraocularly injected immediately after laser irradiation, 7 days, C57B/6J mice, FIG. 2
Protocol: [Experiment 2: Evaluation of Effect of Inhibiting CNV Formation by Compounds 1 to 3]
The synthesized compounds 1 to 3 and the above reference compound were administered to model mice with choroidal neovascularization (CNV) by intravitreal injection, and the CNV inhibition was evaluated. The details of the experiment are as follows. FIG. 2 illustrates the results.
100 mg/kg of ketamine and 10 mg/kg of xylazine were intraperitoneally injected into 6- to 8-week-old C57B/6J mice (Japan SLC, Inc.), and the mice were placed under anesthesia. Then, eyedrops (SANDOL P) containing tropicamide (5 mg/ml) and phenylephrine (5 mg/ml) were used to dilate the pupil. Any four points of the fundus were irradiated with a 532 nm argon laser (100 mW, 0.1 s, 75 μm) to form new blood vessels. The compound (20 pmol) was intraocularly injected immediately after the laser irradiation, and an ofloxacin (Tarivid) ophthalmic ointment was applied to the corneal surface to prevent infection and drying.
100 mg/kg of ketamine and 10 mg/kg of xylazine were intraperitoneally injected into the mice after 7 days had passed from the laser irradiation, and the mice were placed under anesthesia. Then, the mice underwent thoracotomy and were perfused with FITC-dextran (50 mg/ml; Life Technologies Japan Ltd.) through the left ventricle. After the perfusion, the eyes were enucleated and fixed in 4% paraformaldehyde. After the fixation, the corneas, crystalline lenses, and retinas were removed, and the flat mount of the choroid was obtained. CNV was imaged with a fluorescence microscope (BZ-9000; Keyence Corporation) so that the area of the CNV was measured.
An experiment was performed in the same manner as Experiment 2 by administering the compound 2 at different concentrations (0.2 µM, 2 µM, 20 µM), and the CNV inhibition was evaluated. FIG. 3 illustrates the results.

[2] = see WO 2005/063293; cited from earlier work
[3] = test system: retinal neovascularization; conditions: Nowak D G, Bates D O et al., J. Bio. Chem. 2010; cited from earlier work
[4] = test system: SRPK (kinase); conditions: see WO 2005/063293; cited from earlier work
[5] = test system: vascular endothelial growth factor (VEGF); assay: VEGF protein in culture medium of ARPE-19 cells by ELISA (Experiment 1); format: cell-based, human; conditions: compound 10 μM, TGF-β 1 nM, 72 hours, FIG. 1
Protocol: [Experiment 1: Evaluation of Effect of Inhibiting VEGF Expression by Compounds 1 to 3]
The synthesized compounds 1 to 3 and the following reference compound were administered to human retinal pigment epithelial cells (ARPE-19 cell line). After 3 days of cultivation, each culture medium was subjected to ELISA to determine a vascular endothelial growth factor (VEGF). The details of the experiment are as follows. FIG. 1 illustrates the results.
A retinal pigment epithelial cell line, i.e., ARPE-19 was used. The ARPE-19 was cultured in Ham's F-12/DMEM medium containing 10% fetal bovine serum and 1% penicillin-streptomycin solution. The cells were seeded on a 24 well plate at 1.0×10^4 cell/well. On the next day, the culture medium was replaced with 1% fetal bovine serum. Further, the culture medium was removed 24 hours later and replaced with a culture medium (containing 1% fetal bovine serum) to which the compound (10 μM) and TGF-β (1 nM) were added. The culture medium was replaced every 24 hours in the same manner. Then, the culture medium was collected after 72 hours had passed from the administration of the compound. An ELISA kit (manufactured by R&D Systems, Inc.) was used to measure the amount of VEGF protein in the culture medium. The absorbance was measured by an ARVO X5 multiplate reader.

[6] = test system: model mice with choroidal neovascularization (CNV); assay: CNV formation in CNV model mice, ophthalmic ointment (Experiment 4); format: in vivo; conditions: ophthalmic ointment with 10 g compound 2 per 100 g, 7 μL three times a day, versus base material only, FIG. 4
Protocol: [Experiment 4: Preparation of Ophthalmic Ointment and Evaluation of Effect of Inhibiting CNV Formation by Using the Ophthalmic Ointment]
An ophthalmic ointment with the following composition was prepared.
60 g of liquid paraffin; and
30 g of white petrolatum.
An experiment was performed in the same manner as Experiment 2 except that the ophthalmic ointment was applied in a dose of 7 μL three times a day, instead of the intravitreal injection, and the CNV inhibition was evaluated. Moreover, an ophthalmic ointment containing only a base material was used as a control, and the same experiment was performed. FIG. 4 illustrates the results. A of FIG. 4 is a graph that indicates the area of CNV.

| Compound | melting point | CNV formation (area of CNV) [1] | antiviral activity [2] | retinal neovascularization [3] | SRPK (kinase) inhibition [4] | amount of VEGF protein in the culture medium [5] | concentration dependence of reduction of CNV formation ([1]; intravitreal injection, FIG. 3) | CNV formation (area of CNV) [6] |
| --- | --- | --- | --- | --- | --- | --- | --- | --- |
| COc1cc(/C=C2/C(=O)NN(c3ccc(Cl)c(Cl)c3)C2=O)ccc1O [compound 1, 1-(3,4-dichlorophenyl)-4-(4-hydroxy-3-methoxybenzylidene)pyrazolidine-3,5-dione] | 260 °C (dec.) | significant |  |  |  |  |  |  |
| O=C(Nc1cc(C(F)(F)F)ccc1N1CCCCC1)c1ccncc1 [reference compound] |  |  | has antiviral activity | suppress retinal neovascularization | inhibits SRPK |  |  |  |
| COc1cc(/C=C2\C(=N)N3N=C(C(F)(F)F)SC3=NC2=O)ccc1O [compound 2, 6-(4-hydroxy-3-methoxybenzylidene)-5-imino-2-(trifluoromethyl)-5,6-dihydro-7H-[1,3,4]thiadiazolo[3,2-a]pyrimidin-7-one] | 224 to 225 °C | significant; also recorded: more prominent |  |  |  | particularly significant | reduced the CNV formation in a concentration-dependent manner | reduced the CNV formation |
